Data: US20220241249A1, “PHARMACEUTICAL COMPOSITION AND KIT CONTAINING NOVEL PENAM DERIVATIVE OR SALT THEREOF AND ONE OR MORE COMPOUNDS SELECTED FROM beta-LACTAMASE INHIBITORY COMPOUND AND ANTIBACTERIAL COMPOUND OR SALTS THEREOF” (priority 2019, published 2022)

What was measured:
Type in all cases: cell-based
[1] = tested on: Escherichia coli TK-1765 strain producing CMY-2 (strain E); test: MIC of test compound alone or with β-lactamase inhibitor at 4 μg/mL; conditions: Escherichia coli
Experimental: By using a broth microdilution method, the combinational effect of a test compound and a β-lactamase inhibitor was evaluated.
The evaluation test for antibacterial activity was performed in the same manner as in Test Example 1.
Escherichia coli TK-1765 strain producing CMY-2 (hereinafter, called strain E)

[2] = tested on: Pseudomonas aeruginosa ATCC27853 strain (Pseudomonas aeruginosa A); test: Combinational effect of test compound and antibacterial compound, checkerboard FIC index; conditions: for FIC index: Pseudomonas aeruginosa A, checkerboard
Experimental: (§1) By using a broth microdilution method, the combinational effect of antibacterial activity of a test compound and an antibacterial compound was evaluated.
(§2) As bacterial strains, an Escherichia coli ATCC25922 strain (hereinafter, called Escherichia coli A), a Klebsiella pneumoniae ATCC13883 strain (hereinafter, called Klebsiella pneumoniae A), and a Pseudomonas aeruginosa ATCC27853 strain (hereinafter, called Pseudomonas aeruginosa A) were used.
(§3) The minimum inhibitory concentration (hereinafter, called MIC) was measured according to the Clinical and Laboratory Standards Institute (CLSI) standard method by using the following broth microdilution method.
(§4) The bacterial cells that had been cultured overnight on a Mueller Hinton agar medium were scraped off, suspended at a density equivalent to 0.5 McFarland standard. The obtained suspension was diluted at 10 fold, thereby obtaining an inoculum. Cation-adjusted Mueller Hinton media containing only a test compound, containing only an antibacterial compound, or containing a test compound and an antibacterial compound were inoculated with 0.005 mL of the inoculum, and the cells were cultured at 35° C. for 18 to 20 hours. The minimum drug concentration at which the growth of bacteria was not visually observed was defined as MIC (μg/mL).
(§5) The FIC Index is the minimum value calculated by the following formula.
(§6) FIC Index=(MIC value obtained in a case where test compound is used in combination/MIC value obtained in a case where test compound is used alone)+(MIC value obtained in a case where antibacterial compound is used in combination/MIC value obtained in a case where antibacterial compound is used alone)
(§7) In a case where the FIC Index was 0.5 or less, it was decided that the use of two drugs in combination brings about a synergistic effect.
(§8) In a case where the FIC Index was more than 0.5 and 1 or less, it was decided that the use of two drugs in combination brings about an additive effect. (Diagnostic Microbiology and Infectious Disease, 2004, Vol. 49, p. 197)

[3] = tested on: Klebsiella pneumoniae ATCC13883 strain (Klebsiella pneumoniae A); test: as above
Experimental: as §1, §2, §3, §4, §5, §6, §7, §8

For CC(C)(O/N=C(\C(=O)NC1C(=O)N2C[C@@](C(=O)O)(N3CCN(NC(=O)C(=O)c4ccc(O)c(O)c4Cl)C(=O)C3=O)S[C@H]12)c1csc(N)n1)C(=O)O (stereo partly drawn) [Example 126, (3R,5R,6R)-6-((Z)-2-(2-aminothiazol-4-yl)-2-(((2-carboxypropan-2-yl)oxy)imino)aceta-mido)-3-(4-(2-(2-chloro-3,4-dihydroxy-phenyl)-2-oxoaceta-mido)-2,3-dioxopipera-zin-1-yl)-7-oxo-4-thia-1-azabicyclo[3.2.0]-heptane-3-carboxylic acid], the MIC ([1]; test compound alone (β-lactamase inhibitor N/A)) was 2 µg/mL, the MIC ([1]; with AVI at 4 μg/mL) was 0.25 µg/mL and the MIC ([1]; with TAZ at 4 μg/mL) was 1 µg/mL. The MIC ([1]; with VAB at 4 μg/mL) was 0.5 µg/mL, the FIC index ([2]; in combination with AMK) was 0.5 and the FIC index ([2]; in combination with CAZ) was 0.563. The FIC index ([2]; in combination with IPM) was 0.188, the FIC index ([2]; in combination with LVFX) was 0.188 and the FIC index ([2]; in combination with PIPC) was 0.75. The FIC index ([2]; in combination with PL-B) was 0.188, the FIC index ([2]; in combination with RFP) was 0.375 and the FIC index ([2]; in combination with TC) was 0.25. The FIC index ([2]; in combination with VCM) was 0.266, the “combinational effect with other antibacterial compounds” value ([2]; main strains of Gram-negative bacteria, summary of Tables 40 to 42) was “additive or synergistic effect” and the FIC index ([3]; in combination with AMK) was 0.75. The FIC index ([3]; in combination with CAZ) was 0.625, the FIC index ([3]; in combination with IPM) was 0.375 and the FIC index ([3]; in combination with LVFX) was 0.75. The FIC index ([3]; in combination with MPC) was 0.188, the FIC index ([3]; in combination with PIPC) was <0.5 and the FIC index ([3]; in combination with PL-B) was 0.625. For the same compound, the FIC index ([3]; in combination with RFP) was 0.563 and the FIC index ([3]; in combination with VCM) was <0.625.
